The values that follow come from patent US10154981B2, “Use of a feed composition for reducing methane emission in ruminants, and/or to improve ruminant performance” (DSM IP ASSETS B.V., priority 2011, dated 2018).

In this test the test system is rumen liquor. As to the kind of experiment: In vitro test for methane production (modified Hohenheim Forage value Test, HFT). As to conditions: for Effect on Methanogenesis (% compared to control) / Effect on VFA production (% compared to control): artificial TMR, 8 hours at 39° C.; for Effect on Methanogenesis (% compared to control) / Effect on VFA production (% compared to control) / VFA profile (as percentage of total VFA) Ace. / VFA profile (as percentage of total VFA) But. / VFA profile (as percentage of total VFA) Prop.: average of three experiments; for VFA profile (as percentage of total VFA) Ace.: acetate; for VFA profile (as percentage of total VFA) But.: butyrate; for VFA profile (as percentage of total VFA) Prop.: propionate.

Turning to `O=[N+]([O-])OCCCO` [3-nitrooxy propanol, 3-Nitrooxypropanol], the “effect on the acetate/propionate ratio (in words)” value (3-nitrooxy propanol at 0.01% DM when combined with monensin) is given as “further additive effect”. For the same compound, the “methane inhibition (in words)” value (3-nitrooxy propanol used at 0.01% DM) is reported as “maximal methane inhibition”. Further, for the setting “Dose 0.005 % DM”, the “Effect on Methanogenesis (% compared to control)” value was −21%, the “Effect on VFA production (% compared to control)” value is on record as −3%, the “VFA profile (as percentage of total VFA) Ace.” value is 57 percentage of total VFA and the “VFA profile (as percentage of total VFA) But.” value is on record as 7 percentage of total VFA. In addition, under “Dose 0.005 % DM”, the “VFA profile (as percentage of total VFA) Prop.” value is listed as 36 percentage of total VFA. Moreover, under “Dose 0.01 % DM”, the “Effect on Methanogenesis (% compared to control)” value is recorded as −97%, the “Effect on VFA production (% compared to control)” value is −13%, the “VFA profile (as percentage of total VFA) Ace.” value is recorded as 50 percentage of total VFA and the “VFA profile (as percentage of total VFA) But.” value is 8 percentage of total VFA. Also, the “VFA profile (as percentage of total VFA) Prop.” value (Dose 0.01 % DM) is listed as 42 percentage of total VFA.

For `CC[C@@]1([C@@H]2O[C@@H]([C@H]3O[C@@](O)(CO)[C@H](C)C[C@@H]3C)C[C@@H]2C)CC[C@H]([C@]2(C)CC[C@]3(C[C@H](O)[C@@H](C)[C@@H]([C@@H](C)[C@@H](OC)[C@H](C)C(=O)O)O3)O2)O1` [Monensin, monensin, reference compound], where the note is “Dose 0.01 % DM”, the “Effect on Methanogenesis (% compared to control)” value was −23%, the “Effect on VFA production (% compared to control)” value was −6%, the “VFA profile (as percentage of total VFA) Ace.” value is reported as 56 percentage of total VFA and the “VFA profile (as percentage of total VFA) But.” value is 6 percentage of total VFA. For the setting “Dose 0.01 % DM”, the “VFA profile (as percentage of total VFA) Prop.” value is listed as 38 percentage of total VFA.
